Measurements reported in patent US9278996B2, “Dolastatin-10 derivative, method of producing the same and anticancer drug composition containing the same” (CELLTRION, INC., priority 2012, dated 2016).
Read-outs that look alike come from different tables or passages of the source.

Tests used:
Assay type in all cases: cell-based
breast cancer (BT-474) = test: Anticancer activity assay (WST-8 cell growth), BT-474; conditions: Homo sapiens, read-out: IC50 (nM) BT-474
Protocol: (§1) The compounds of the present invention were assayed for inhibitory activity against 7 cancer cell lines as breast cancer (BT-474), human epithelial cancer (A-431), non-small cell lung cancer (NCI-H460), colon cancer (HT-29), colon cancer (SW-620), breast cancer (MDA-MB-231) and breast cancer (MCF-7).
(§2) Briefly, a suspension of each cancer cell line was serially diluted, and plated at a density of 2˜3×10^3 cells/well into 96-well microplates, followed by incubation at 37° C. for 4 day in a 5% CO2 atmosphere. Cell growth in a monolayer was measured using WST-8 reagemt (Dojindo, Japan).
(§3) IC50 values of the compounds against the cancer cell lines were calculated as compound concentrations at which the cells were grown by 50% OD of the control.

[1] = test system: human epithelial cancer (A-431); test: Anticancer activity assay (WST-8 cell growth), A-431
Protocol: as §1, §2, §3

colon cancer (SW-620) = test: Anticancer activity assay (WST-8 cell growth), SW-620; conditions: read-out: IC50 (nM) SW-620
Protocol: as §1, §2, §3

[2] = test system: non-small cell lung cancer (NCI-H460); test: Anticancer activity assay (WST-8 cell growth), NCI-H460; conditions: read-out: IC50 (nM) NCI-H460
Protocol: as §1, §2, §3

breast cancer (MCF-7) = test: Anticancer activity assay (WST-8 cell growth), MCF-7; conditions: read-out: IC50 (nM) MCF-7
Protocol: as §1, §2, §3

[3] = test system: breast cancer (MDA-MB-231); test: Anticancer activity assay (WST-8 cell growth), MDA-MB-231; conditions: read-out: IC50 (nM) MDA-MB-231
Protocol: as §1, §2, §3

colon cancer (HT-29) = test: Anticancer activity assay (WST-8 cell growth), HT-29; conditions: read-out: IC50 (nM) HT-29
Protocol: as §1, §2, §3

[4] = A-431, 96 h, read-out: IC50 (nM) A-431

In the case of `CC[C@H](C)[C@@H]([C@@H](CC(=O)N1C[C@H](OC)C[C@H]1[C@H](OC)[C@@H](C)C(=O)NCC(=O)c1ccc(OC)cc1)OC)N(C)C(=O)[C@@H](NC(=O)[C@@H](NC)C(C)C)C(C)C` (stereo in doubt) [Compound I-5, (2S)—N-((3R,4S)-3-methoxy-1-((2R,4R)-4-methoxy-2-((1R,2R)-1-methoxy-3-((2-(4-methoxyphenyl)-2-oxoethyl)amino)-2-methyl-3-oxopropyl)pyrrolidin-1-yl)-5-methyl-1-oxoheptan-4-yl)-N,3-dimethyl-2-((S)-3-methyl-2-(methylamino)butaneamido)butanamide], the IC50 (breast cancer (BT-474); BT-474, 96 h) is reported as 0.53 nM and the IC50 [1, 4] is reported as 61.2 nM.

Compound `CC[C@H](C)[C@@H]([C@@H](CC(=O)N1C[C@H](OC)C[C@@H]1[C@H](OC)[C@@H](C)C(=O)NCCc1ccc(F)cc1)OC)N(C)C(=O)[C@@H](NC(=O)[C@@H](NC)C(C)C)C(C)C` [Compound I-3, (S)—N-((3R,4S,5S)-1-((2R,4R)-2-((1R,2R)-3-((4-fluorophenethyl)amino)-1-methoxy-2-methyl-3-oxopropyl)-4-methoxypyrrolidin-1-yl)-3-methoxy-5-methyl-1-oxoheptan-4-yl)-N,3-dimethyl-2-((S)-3-methyl-2-(methylamino)butaneamido)butanamide] has an IC50 (breast cancer (BT-474); BT-474, 96 h) of 1.1 nM and an IC50 [1, 4] of 37.9 nM.

With `CC[C@H](C)[C@@H]([C@@H](CC(=O)N1C[C@H](OC)CC1[C@H](OC)[C@@H](C)C(=O)NCCc1cc(F)c(Cl)cc1Cl)OC)N(C)C(=O)[C@@H](NC(=O)[C@@H](NC)C(C)C)C(C)C` (stereo partly drawn) [Compound I-4] the IC50 (breast cancer (BT-474); BT-474, 96 h) was 2.44 nM and the IC50 [1, 4] was 21.1 nM.

`CC[C@H](C)[C@@H]([C@@H](CC(=O)N1C[C@H](O)C[C@@H]1[C@H](OC)[C@@H](C)C(=O)NCCc1ccccc1)OC)N(C)C(=O)[C@@H](NC(=O)[C@H](C(C)C)N(C)C)C(C)C` [Compound I-8, (S)-2-((S)-2-(dimethylamino)-3-methylbutaneamido)-N-((3R,4S,5S)-1-((2R,4R)-4-hydroxy-2-((1R,2R)-1-methoxy-2-methyl-3-oxo-3-(phenethylamino)propyl)pyrrolidin-1-yl)-3-methoxy-5-methyl-1-oxoheptan-4-yl)-N,3-dimethylbutanamide] gave an IC50 (colon cancer (SW-620); Homo sapiens, SW-620, 96 h) of 2.9 nM, an IC50 (breast cancer (BT-474); BT-474, 96 h) of 0.68 nM and an IC50 ([2]; Homo sapiens, NCI-H460, 96 h) of 1.5 nM. It also gave an IC50 (breast cancer (MCF-7); Homo sapiens, MCF7, 96 h) of 27 nM.

Work on `CC[C@H](C)[C@@H]([C@@H](CC(=O)N1CC(=O)C[C@@H]1[C@H](OC)[C@@H](C)C(=O)NCCc1ccccc1)OC)N(C)C(=O)[C@@H](NC(=O)[C@H](C(C)C)N(C)C)C(C)C` [Compound I-9, (S)-2-((S)-2-(dimethylamino)-3-methylbutaneamido)-N-((3R,4S,5S)-3-methoxy-1-((R)-2-((1R,2R)-1-methoxy-2-methyl-3-oxo-3-(phenethylamino)propyl)-4-oxopyrrolidin-1-yl)-5-methyl-1-oxoheptan-4-yl)-N,3-dimethylbutanamide] yielded an IC50 (colon cancer (SW-620); Homo sapiens, SW-620, 96 h) of 27.7 nM, an IC50 (breast cancer (BT-474); BT-474, 96 h) of 5.23 nM and an IC50 ([2]; Homo sapiens, NCI-H460, 96 h) of 10.9 nM. It also gave an IC50 (breast cancer (MCF-7); Homo sapiens, MCF7, 96 h) of 27 nM.

For `CC[C@H](C)[C@@H]([C@@H](CC(=O)N1C[C@@H](OC)C[C@H]1[C@H](OC)[C@@H](C)C(=O)NCCc1ccccc1)OC)N(C)C(=O)[C@@H](NC(=O)[C@@H](NC)C(C)C)C(C)C` [Compound I-33, (2S)—N-((3R,4S)-3-methoxy-1-((2S,45)-4-methoxy-2-((1R,2R)-1-methoxy-2-methyl-3-oxo-3-(phenethylamino)propyl)pyrrolidin-1-yl)-5-methyl-1-oxoheptan-4-yl)-N,3-dimethyl-2-((S)-3-methyl-2-(methylamino)butaneamido)butanamide], the IC50 (colon cancer (SW-620); Homo sapiens, SW-620, 96 h) was 5.49 nM, the IC50 (breast cancer (BT-474); BT-474, 96 h) was 0.68 nM and the IC50 ([3]; Homo sapiens, MDA-MB-231, 96 h) was 2.23 nM. It also gave an IC50 ([2]; Homo sapiens, NCI-H460, 96 h) of 9.4 nM, an IC50 (breast cancer (MCF-7); Homo sapiens, MCF7, 96 h) of 1.82 nM and an IC50 (colon cancer (HT-29); Homo sapiens, HT-29, 96 h) of 2.82 nM.

`CC[C@H](C)[C@@H]([C@@H](CC(=O)N1C[C@H](OC)C[C@H]1[C@H](OC)[C@@H](C)C(=O)NCC(O)c1ccccc1)OC)N(C)C(=O)[C@@H](NC(=O)[C@@H](NC)C(C)C)C(C)C` (stereo partly drawn) [Compound I-35, (2S)—N-((3R,4S)-1-((2S,4R)-2-((1R,2R)-3-(2-(2-hydroxy-2-phenylethyl)amino)-1-methoxy-2-methyl-3-oxopropyl)-4-methoxypyrrolidin-1-yl)-3-methoxy-5-methyl-1-oxoheptan-4-yl)-N,3-dimethyl-2-((S)-3-methyl-2-(methylamino)butaneamido)butanamide] was tested, and the IC50 (colon cancer (SW-620); Homo sapiens, SW-620, 96 h) was 2.1 nM, the IC50 (breast cancer (BT-474); BT-474, 96 h) was 0.23 nM and the IC50 ([2]; Homo sapiens, NCI-H460, 96 h) was 1.5 nM. The IC50 (colon cancer (HT-29); Homo sapiens, HT-29, 96 h) was 4.2 nM.

`COc1cccc2c1C(=O)c1c(O)c3c(c(O)c1C2=O)C[C@@](O)(C(=O)CO)C[C@@H]3O[C@H]1C[C@H](N)[C@H](O)[C@H](C)O1` [Doxorubcin, reference compound] gave an IC50 (colon cancer (SW-620); SW-620 cells, 4 day incubation, WST-8) of 290 nM, an IC50 ([3]; MDA-MB-231 cells, 4 day incubation, WST-8) of 850 nM and an IC50 ([2]; NCI-H460 cells, 4 day incubation, WST-8) of 150 nM. The IC50 (breast cancer (MCF-7); MCF-7 cells, 4 day incubation, WST-8) was 460 nM and the IC50 (colon cancer (HT-29); HT-29 cells, 4 day incubation, WST-8) was 1.81 nM.

`CC(=O)O[C@H]1C(=O)[C@@]2(C)[C@H]([C@H](OC(=O)c3ccccc3)[C@]3(O)C[C@H](OC(=O)[C@H](O)[C@@H](NC(=O)c4ccccc4)c4ccccc4)C(C)=C1C3(C)C)[C@]1(OC(C)=O)CO[C@@H]1C[C@@H]2O` [Paclitaxel, reference compound] showed an IC50 (colon cancer (SW-620); Homo sapiens, 96 h, SW-620 cells, 4 day incubation, WST-8) of 26.8 nM, an IC50 (breast cancer (BT-474); 96 h, BT-474 cells, 4 day incubation, WST-8) of 14.4 nM and an IC50 ([3]; Homo sapiens, 96 h, MDA-MB-231 cells, 4 day incubation, WST-8) of 90 nM. The IC50 ([2]; Homo sapiens, 96 h, NCI-H460 cells, 4 day incubation, WST-8) was 26.8 nM, the IC50 ([1]; 96 h, A-431 cells, 4 day incubation, WST-8, read-out: IC50 (nM) A-431) was 442 nM and the IC50 (breast cancer (MCF-7); Homo sapiens, MCF7, 96 h, MCF-7 cells, 4 day incubation, WST-8) was 27.1 nM. It also gave an IC50 (colon cancer (HT-29); Homo sapiens, 96 h, HT-29 cells, 4 day incubation, WST-8) of 19.5 nM.
